In US20040224989A1, “S-lansoprazole compositions and methods” (priority 1999, published 2004):
Where two headings read alike, the source gives them in different places.

How the values were obtained:
gastric acid secretion = details: in humans; cited from earlier work
[1] = test system: hepatic drug metabolizing enzyme systems; details: relative to omeprazole; cited from earlier work
serum gastrin = details: humans, on administration; cited from earlier work
[2] = in humans; cited from earlier work
stability at low pH = format: physicochemical
From the text: The terms “pharmaceutically acceptable salts” or “a pharmaceutically acceptable salt thereof” refer to salts prepared from pharmaceutically acceptable non-toxic bases. […] Suitable pharmaceutically acceptable base addition salts for the compound of the present invention include metallic salts of aluminum, calcium, lithium, magnesium, potassium, sodium, titanium and zinc or organic salts made from lysine, N,N′-dibenzylethylenediamine, chloroprocaine, choline, diethanolamine, ethylenediamine, meglumine (N-methylglucamine) and procaine. If any salt is to be used, sodium salts are preferred.

CYP2D6 [3] = test: metabolism by CYP2D6; details: CYP2D6 is the polymorphically expressed enzyme
CYP3A4 = CYP3A4 (Homo sapiens, UniProt P08684); test: metabolism by CYP3A4
Chain of CYP3A4 (P08684 whole entry): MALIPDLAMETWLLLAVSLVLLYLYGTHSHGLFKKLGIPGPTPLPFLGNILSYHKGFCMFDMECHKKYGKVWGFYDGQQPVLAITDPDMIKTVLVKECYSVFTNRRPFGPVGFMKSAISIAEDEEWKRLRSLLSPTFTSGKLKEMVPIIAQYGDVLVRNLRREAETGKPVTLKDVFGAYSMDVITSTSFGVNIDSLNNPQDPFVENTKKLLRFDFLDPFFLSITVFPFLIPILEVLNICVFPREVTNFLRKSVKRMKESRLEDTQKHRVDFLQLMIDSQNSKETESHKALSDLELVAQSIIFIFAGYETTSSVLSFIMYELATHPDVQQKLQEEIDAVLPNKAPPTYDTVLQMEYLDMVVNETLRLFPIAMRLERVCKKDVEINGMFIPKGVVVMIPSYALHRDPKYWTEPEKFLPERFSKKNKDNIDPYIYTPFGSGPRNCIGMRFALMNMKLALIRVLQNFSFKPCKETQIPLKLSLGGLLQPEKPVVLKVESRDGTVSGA

canine parietal cells = details: isolated canine parietal cells; (+) versus (−) enantiomer; Nagaya et al.; cited from earlier work
[4] = pharmacokinetic and duration profile of the S(−) isomer; format: in vivo; details: compared with racemic lansoprazole
From the text: Syndrome, psoriasis and other disorders, including those that would benefit from an inhibitory action on H^+, K^+-ATPase in that it provides this effective treatment while substantially reducing the adverse effects of racemic lansoprazole including, but not limited to, hepatocellular neoplasia, gastric carcinoids, headache, diarrhea and skin alterations.

CYP2D6 [5] = test system: CYP2D6

SMILES | duration of the acid inhibitory effect (gastric acid secretion) | effects on hepatic drug metabolizing enzyme systems [1] | fasting serum gastrin levels (serum gastrin) | serum half-life [2] | stability at low pH (stability at low pH) | metabolism by CYP2D6 (CYP2D6 [3]) | metabolism by CYP3A4 (CYP3A4) | effect on acid formation stimulated by db-cAMP (canine parietal cells) | AUC (area under the curve) [4] | duration [4] | first pass metabolism [4] | onset [4] | metabolism by CYP2D6 (CYP2D6 [5])
Cc1c(OCC(F)(F)F)ccnc1C[S+]([O-])c1nc2ccccc2[nH]1 (racemic) [racemic lansoprazole, 2-[3-methyl-4-(2,2,2-trifluoroethoxy)pyrid-2-yl]methylsulfinyl-benzimidazole] | about 24 hours | comparable to omeprazole | significantly elevated | about 1.5 hours |  |  |  |  |  |  |  |  | 
Cc1c(OCC(F)(F)F)ccnc1C[S+]([O-])c1nc2ccccc2[nH]1 (single isomer, unassigned; (-)) [S(−) lansoprazole, (−) isomer of 2-[3-methyl-4-(2,2,2-trifluoroethoxy)pyrid-2-yl]methylsulfinyl-benzimidazole] |  |  |  |  | unstable at low pH | metabolized by both CYP2D6 and CYP3A4 | metabolized by both CYP2D6 and CYP3A4 | almost identical | higher AUC | longer duration | lower first pass metabolism | more rapid onset | 
Cc1c(OCC(F)(F)F)ccnc1C[S@@+]([O-])c1nc2ccccc2[nH]1 [R(+) lansoprazole, reference compound] |  |  |  |  |  |  | metabolized only by CYP2D6 | almost identical |  |  |  |  | metabolized only by CYP2D6
